A short description of data set [1]: Boiling point of tamponading agents. The note with it: Table 1.
The nature of data set [2]: Refractive index of tamponading agents. Type of data set: physicochemical. The note with it: Table 1.
The nature of data set [3]: Tamponade force calculated from specific gravity difference to fluid vitreous. Type of data set: physicochemical. On the set-up: unit not given beside the values. As to conditions: difference in specific gravity to fluid vitreous (1.03) multiplied by volume of tamponade agent (5 mL).
The nature of data set [4]: Specific gravity of tamponading agents. The class given is physicochemical. The text has this:
Soluble Mixtures of Partially Fluorinated Ethers. The presence of the hydrocarbon chain in the structure of formula (I) has a large effect on the solubility properties of the molecule. The partially fluorinated ethers of formula (I) are completely miscible with certain perfluorocarbons, such as perfluoro-n-octane (“PFnO”) (C8F18), perfluoroethylcyclohexane (C8F16), perfluorodecalin (C10F18), and perfluorophenanthrene (C14F24). The solubility of formula (I) liquids with perfluorocarbons enables the design of soluble mixtures that can be used as long-term postoperative tamponade agents that have a specific gravity less than 1.6 or 1.5 such that the probability of retinal damage due to weight is reduced. For example, the commonly used intraoperative perfluorocarbon, PFnO, has a specific gravity of about 1.7. Thus, in order to make a soluble mixture of PFnO and DFPE (which has a specific gravity of about 1.3) that has a specific gravity less than 1.6 or 1.5, then one can use a greater amount of DFPE to reduce the specific gravity of the soluble mixture. For example, a mixture comprising about 25% PFnO and about 75% DFPE has a specific gravity of 1.39 at body temperature (see Table 1). This general strategy of mixing lighter partially fluorinated ether liquids with perfluorocarbon liquids can be conducted with any of the formula (I) liquids and a perfluorocarbon liquid, as long as they are miscible. Further, one can also make soluble mixtures between different partially fluorinated ethers in order to obtain a liquid tamponade agent that has a preferred specific gravity.
Further, one can use the strategy of mixing partially fluorinated ether liquids of formula (I) with lighter tamponade liquids, such as silicone, in order to resolve buoyancy problems and to increase tamponade force. As described previously, because silicone liquids are lighter than water and are immiscible in water, silicone liquids form a globule that rises above aqueous solutions. To rectify this problem, partially fluorinated ether liquids can be mixed with silicone liquids and oils such that soluble mixture has a specific gravity greater than 1.0. In one embodiment, partially fluorinated ether and silicone solutions have a specific gravity between about 1.00 and about 1.06. For example, DFPE can be mixed with silicone oil (such as dimethyl siloxane) and be soluble in silicone oil up to about 20% DFPE (weight to weight (w/w)). Thus, the invention contemplates DFPE and silicone mixtures where DFPE comprises between about 10% and about 20% of the solution and where silicone comprises between about 90% and about 80% of the solution. In one embodiment, a soluble mixture comprises between about 15% and about 18% (w/w) DFPE and between about 85% and about 82% (w/w) silicone oil. In another embodiment, a soluble mixture of about 18% (w/w) DFPE and about 82% (w/w) silicone oil has a specific gravity of about 1.02 at 37° C. In another embodiment, a soluble mixture of about 20% (w/w) DFPE and about 80% (w/w) silicone oil has a specific gravity of about 1.02-1.03. Perfluorocarbon liquids cannot be easily mixed with silicone liquids because perfluorocarbon liquids, not having any hydrocarbons, are only soluble up to less than about 1000 ppm with silicone.

Data set [5] can be described thus: Viscosity of tamponading agents. Type of data set: physicochemical.
Data set [6] is classed as physicochemical. As for the experimental part: (§1) DFPE liquid is stable. […] Further, a mixture of DFPE in silicone (20% DFPE (w/w) and 80% silicone (w/w)) is stable through daily temperature cycling (20-40° C.) through at least 18 months. Further with respect to water insolubility, a single drop of DFPE (about 50 ppm) added to one liter of water remains visible, unchanged and undissolved for long periods of time (at least greater than 8 months).

Data set [7] can be described thus: Water insolubility (single drop in one liter of water). Type of data set: physicochemical. The note with it: single drop (about 50 ppm) added to one liter of water. As for the experimental part:
as §1

In data set [8] the test system is eye. Kind of data set: Gas chromatography of DFPE recovered from the eye. The class given is in vivo. As to conditions: after one month of residence time in the eye.
Data set [9] is classed as physicochemical. The text has this:
Soluble Mixtures of Partially Fluorinated Ethers. The presence of the hydrocarbon chain in the structure of formula (I) has a large effect on the solubility properties of the molecule. The partially fluorinated ethers of formula (I) are completely miscible with certain perfluorocarbons, such as perfluoro-n-octane (“PFnO”) (C8F18), perfluoroethylcyclohexane (C8F16), perfluorodecalin (C10F18), and perfluorophenanthrene (C14F24). The solubility of formula (I) liquids with perfluorocarbons enables the design of soluble mixtures that can be used as long-term postoperative tamponade agents that have a specific gravity less than 1.6 or 1.5 such that the probability of retinal damage due to weight is reduced. For example, the commonly used intraoperative perfluorocarbon, PFnO, has a specific gravity of about 1.7. Thus, in order to make a soluble mixture of PFnO and DFPE (which has a specific gravity of about 1.3) that has a specific gravity less than 1.6 or 1.5, then one can use a greater amount of DFPE to reduce the specific gravity of the soluble mixture. For example, a mixture comprising about 25% PFnO and about 75% DFPE has a specific gravity of 1.39 at body temperature (see Table 1). […]
The source holds these as a separate data set.

The test system of data set [10] is eye. As to conditions: in vivo. The text has this: FIG. 4 and FIG. 5 show results indicating the long term biocompatibility of the eye to decafluoro-di-n-pentyl ether. […] Thus, the above characteristics, combined with the specific-gravity characteristics of the partially fluorinated ethers of formula (I), allow for their long-term use in the eye without damage, and with improved efficacy, convenience and biocompatibility. […] The invention contemplates the use of liquid tamponade agents comprising partially fluorinated ethers according to formula (I) for postoperative periods such as: hours, days, weeks, 1 month, 2 months, 3 months, greater than 3 months, greater than 6 months, up to 1 year, up to 2 years or more. Period greater than 1 year are not generally required for tamponade.

Setting [11] is: approximate, no temperature stated.

Here are results for 4 compounds from patent US20070219162A1, “Partially-fluorinated ethers, compositions and uses thereof, for long-term tamponade in the eye” (THE TRUSTEES OF COLUMBIA UNIVERSITY IN THE CITY OF NEW YORK, priority 2004, published 2007).

SMILES strings stand for the structures.

`Fc1c(F)c(F)c2c(c1F)c(F)c(F)c1c(F)c(F)c(F)c(F)c12` [Perfluorophenanthrene, perfluorophenanthrene]: the “Boiling Point” value in data set [1] worked out at 215 °C. For the same compound, in data set [2], the “Refractive Index” value was determined as 1.28. The “Tamponade Force” value in [3] is recorded as 5.0. Moreover, the “Specific Gravity” value in data set [4] (Table 1) was determined as 2.03. The “Viscosity (centistrokes at 25° C.)” value in data set [5] is on record as 8.03 centistrokes.
For the compound `FC(F)(F)C(F)(F)C(F)(F)C(F)(F)C(F)(F)C(F)(F)C(F)(F)C(F)(F)F` [PFnO, perfluoro-n-octane], the “Boiling Point” value in [1] came out at 105 °C. Moreover, the “Refractive Index” value in data set [2] is reported as 1.27. Also, the “Tamponade Force” value in [3] was 3.65. Moreover, the “Specific Gravity” value in data set [4] (Table 1) is listed as 1.76; in data set [4] (setting [11]), “about 1.7”. Besides, the “Viscosity (centistrokes at 25° C.)” value in data set [5] is given as 0.8 centistrokes.
As for `FC1(F)C(F)(F)C(F)(F)C2(F)C(F)(F)C(F)(F)C(F)(F)C(F)(F)C2(F)C1(F)F` (stereo not shown) [Perfluorodecalin, perfluorodecalin], the “Boiling Point” value in data set [1] stood at 177 °C. The “Refractive Index” value in [2] was determined as 1.31. Besides, in data set [3], the “Tamponade Force” value was 4.55. Also, the “Specific Gravity” value in [4] (Table 1) was 1.94. In data set [5], the “Viscosity (centistrokes at 25° C.)” value came out at 2.7 centistrokes.
For `FC(F)(F)C(F)(F)CCCOCCCC(F)(F)C(F)(F)F` [DFPE, decafluoro-di-n-pentyl ether], in [6], the “stability to sunlight exposure” value is reported as “stable to sunlight exposure”. Besides, the stable over time result in data set [6] (ambient temperature) is reported as “at least 2 years”. The “stable when exposed to heat” value in data set [6] (heat exposure) is “up to 95 °C”. Moreover, in [7], the “time a single drop remains visible, unchanged and undissolved in water” value is listed as “greater than 8 months”. The “changes in composition of DFPE recovered from the eye” value in the data set on eye [8] is recorded as “less than 0.05%”. Moreover, the “solubility in silicone oil” value in data set [9] is listed as “up to 20 % (w/w)”. Moreover, in [3], the “Tamponade Force” value was 1.4. The “Specific Gravity” value in data set [4] (Table 1) was 1.31; in data set [4] (setting [11]), “about 1.3”; in data set [4] (at body temperature), 1.31. The “amplitudes of electroretinographic responses” value in the data set on eye [10] is listed as “does not exhibit any negative effects”. The “implicit times of electroretinographic responses” value in the data set on eye [10] is recorded as “does not exhibit any negative effects”.
